Assay results: PMC5053573, “Structure-Based Design of Tetrahydroisoquinoline-7-carboxamides as Selective Discoidin Domain Receptor 1 (DDR1) Inhibitors” (Journal of Medicinal Chemistry, 2016)

Tests used:
Assay in all cases: biochemical
Conditions in all cases: read-out: %Ctrl @ 1000nM
PIK3C2G = PIK3C2G (Homo sapiens, UniProt O75747)
EPHA3 = EPHA3 (Homo sapiens, UniProt P29320)
TBK1 = TBK1 (Homo sapiens, UniProt Q9UHD2)
PIK3CA(M1043I) = PIK3CA(M1043I) (Homo sapiens, UniProt P42336, M1043I)
PIK4CB = biological target: T1, PIK4CB (Homo sapiens, UniProt Q9UBF8)
T1 construct: gene PI4KB

[1] = biological target: T2, RSK4(Kin.Dom.1-N-terminal) (Homo sapiens, UniProt Q9UK32)
T2 construct: gene RPS6KA6

TNK1 = TNK1 (Homo sapiens, UniProt Q13470)
AKT1 = AKT1 (Homo sapiens, UniProt P31749)
FLT3(ITD) = FLT3(ITD) (Homo sapiens, UniProt P36888, ITD)
BLK = BLK (Homo sapiens, UniProt P51451)
PIK3CA(C420R) = PIK3CA(C420R) (Homo sapiens, UniProt P42336, C420R)
DAPK2 = DAPK2 (Homo sapiens, UniProt Q9UIK4)
BRSK1 = BRSK1 (Homo sapiens, UniProt Q8TDC3)
RIPK2 = RIPK2 (Homo sapiens, UniProt O43353)
FLT3-autoinhibited = FLT3-autoinhibited (Homo sapiens, UniProt P36888)
BMPR1A = BMPR1A (Homo sapiens, UniProt P36894)
SBK1 = SBK1 (Homo sapiens, UniProt Q52WX2)
MAST1 = MAST1 (Homo sapiens, UniProt Q9Y2H9)
NEK11 = NEK11 (Homo sapiens, UniProt Q8NG66)
LIMK2 = LIMK2 (Homo sapiens, UniProt P53671)
[2] = biological target: ABL1(E255K)-phosphorylated (Homo sapiens, UniProt P00519, E255K)
ACVR2B = ACVR2B (Homo sapiens, UniProt Q13705)
[3] = biological target: T3, RSK2(Kin.Dom.1-N-terminal) (Homo sapiens, UniProt P51812)
T3 construct: gene RPS6KA3

PIK3CG = PIK3CG (Homo sapiens, UniProt P48736)
[4] = biological target: JAK1(JH2domain-pseudokinase) (Homo sapiens, UniProt P23458)
ERBB3 = ERBB3 (Homo sapiens, UniProt P21860)
TLK2 = TLK2 (Homo sapiens, UniProt Q86UE8)
PCTK2 = biological target: T4, PCTK2 (Homo sapiens, UniProt Q00537)
T4 construct: gene CDK17

AKT2 = AKT2 (Homo sapiens, UniProt P31751)
PKAC-alpha = biological target: T5, PKAC-alpha (Homo sapiens, UniProt P17612)
T5 construct: gene PRKACA

KIT-autoinhibited = KIT-autoinhibited (Homo sapiens, UniProt P10721)
[5] = biological target: RPS6KA4(Kin.Dom.1-N-terminal) (Homo sapiens, UniProt O75676)
PHKG1 = PHKG1 (Homo sapiens, UniProt Q16816)
LYN = LYN (Homo sapiens, UniProt P07948)
ERN1 = ERN1 (Homo sapiens, UniProt O75460)

MAST1, sequence (Q9Y2H9 whole entry): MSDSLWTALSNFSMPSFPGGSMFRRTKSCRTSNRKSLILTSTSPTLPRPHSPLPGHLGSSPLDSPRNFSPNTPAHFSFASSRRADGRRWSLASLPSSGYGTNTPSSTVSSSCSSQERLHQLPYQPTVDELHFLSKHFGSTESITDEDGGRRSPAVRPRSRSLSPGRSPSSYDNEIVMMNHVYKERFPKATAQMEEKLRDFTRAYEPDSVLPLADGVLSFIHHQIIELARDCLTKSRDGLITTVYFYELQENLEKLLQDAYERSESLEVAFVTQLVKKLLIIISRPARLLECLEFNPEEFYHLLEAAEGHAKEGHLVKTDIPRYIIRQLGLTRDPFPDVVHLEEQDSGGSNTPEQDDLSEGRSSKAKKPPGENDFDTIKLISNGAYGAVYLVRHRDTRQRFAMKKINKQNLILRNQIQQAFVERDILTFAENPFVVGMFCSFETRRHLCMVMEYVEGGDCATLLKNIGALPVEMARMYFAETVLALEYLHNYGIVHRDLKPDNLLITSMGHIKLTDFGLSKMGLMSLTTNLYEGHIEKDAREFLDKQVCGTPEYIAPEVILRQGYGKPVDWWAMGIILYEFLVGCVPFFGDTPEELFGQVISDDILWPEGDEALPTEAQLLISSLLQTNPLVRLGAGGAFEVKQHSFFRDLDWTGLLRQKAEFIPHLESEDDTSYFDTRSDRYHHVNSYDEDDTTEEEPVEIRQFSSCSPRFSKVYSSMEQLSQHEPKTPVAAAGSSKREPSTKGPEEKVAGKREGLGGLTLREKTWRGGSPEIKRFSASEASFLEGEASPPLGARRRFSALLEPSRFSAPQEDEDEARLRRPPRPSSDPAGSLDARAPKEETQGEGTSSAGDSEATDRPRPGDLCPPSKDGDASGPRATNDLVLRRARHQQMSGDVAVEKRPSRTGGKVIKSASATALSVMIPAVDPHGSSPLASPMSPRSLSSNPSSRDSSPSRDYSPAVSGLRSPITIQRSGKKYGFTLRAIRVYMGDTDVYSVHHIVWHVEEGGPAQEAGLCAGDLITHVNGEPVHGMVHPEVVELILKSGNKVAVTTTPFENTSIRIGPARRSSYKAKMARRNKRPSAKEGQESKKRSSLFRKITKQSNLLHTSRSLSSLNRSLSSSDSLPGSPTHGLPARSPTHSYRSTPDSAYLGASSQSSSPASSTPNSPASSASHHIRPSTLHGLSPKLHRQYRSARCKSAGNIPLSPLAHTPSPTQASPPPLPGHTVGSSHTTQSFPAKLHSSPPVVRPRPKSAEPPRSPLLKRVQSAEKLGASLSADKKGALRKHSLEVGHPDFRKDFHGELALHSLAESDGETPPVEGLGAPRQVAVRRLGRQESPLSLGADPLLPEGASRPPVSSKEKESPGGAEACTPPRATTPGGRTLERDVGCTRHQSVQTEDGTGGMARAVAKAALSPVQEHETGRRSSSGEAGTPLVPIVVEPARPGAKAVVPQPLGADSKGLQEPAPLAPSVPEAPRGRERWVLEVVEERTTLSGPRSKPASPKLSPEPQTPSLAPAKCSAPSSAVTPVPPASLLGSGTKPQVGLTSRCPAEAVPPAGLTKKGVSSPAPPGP
LYN, sequence (P07948 whole entry): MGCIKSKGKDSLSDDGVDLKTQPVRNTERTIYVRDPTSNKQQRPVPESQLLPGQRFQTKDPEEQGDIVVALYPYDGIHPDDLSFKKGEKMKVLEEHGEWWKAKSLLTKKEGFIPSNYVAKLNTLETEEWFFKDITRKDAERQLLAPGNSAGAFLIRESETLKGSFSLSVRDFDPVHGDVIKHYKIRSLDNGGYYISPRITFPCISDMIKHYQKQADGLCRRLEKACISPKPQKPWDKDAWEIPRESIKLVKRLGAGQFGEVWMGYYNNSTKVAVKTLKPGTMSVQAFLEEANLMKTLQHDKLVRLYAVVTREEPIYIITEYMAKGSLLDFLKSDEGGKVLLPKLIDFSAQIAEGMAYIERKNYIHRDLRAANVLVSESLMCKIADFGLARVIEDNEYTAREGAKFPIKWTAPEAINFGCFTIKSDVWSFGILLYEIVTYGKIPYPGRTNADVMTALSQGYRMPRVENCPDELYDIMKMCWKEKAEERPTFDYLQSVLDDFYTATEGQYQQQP
PIK3CA(M1043I), sequence (P42336 whole entry M1043I): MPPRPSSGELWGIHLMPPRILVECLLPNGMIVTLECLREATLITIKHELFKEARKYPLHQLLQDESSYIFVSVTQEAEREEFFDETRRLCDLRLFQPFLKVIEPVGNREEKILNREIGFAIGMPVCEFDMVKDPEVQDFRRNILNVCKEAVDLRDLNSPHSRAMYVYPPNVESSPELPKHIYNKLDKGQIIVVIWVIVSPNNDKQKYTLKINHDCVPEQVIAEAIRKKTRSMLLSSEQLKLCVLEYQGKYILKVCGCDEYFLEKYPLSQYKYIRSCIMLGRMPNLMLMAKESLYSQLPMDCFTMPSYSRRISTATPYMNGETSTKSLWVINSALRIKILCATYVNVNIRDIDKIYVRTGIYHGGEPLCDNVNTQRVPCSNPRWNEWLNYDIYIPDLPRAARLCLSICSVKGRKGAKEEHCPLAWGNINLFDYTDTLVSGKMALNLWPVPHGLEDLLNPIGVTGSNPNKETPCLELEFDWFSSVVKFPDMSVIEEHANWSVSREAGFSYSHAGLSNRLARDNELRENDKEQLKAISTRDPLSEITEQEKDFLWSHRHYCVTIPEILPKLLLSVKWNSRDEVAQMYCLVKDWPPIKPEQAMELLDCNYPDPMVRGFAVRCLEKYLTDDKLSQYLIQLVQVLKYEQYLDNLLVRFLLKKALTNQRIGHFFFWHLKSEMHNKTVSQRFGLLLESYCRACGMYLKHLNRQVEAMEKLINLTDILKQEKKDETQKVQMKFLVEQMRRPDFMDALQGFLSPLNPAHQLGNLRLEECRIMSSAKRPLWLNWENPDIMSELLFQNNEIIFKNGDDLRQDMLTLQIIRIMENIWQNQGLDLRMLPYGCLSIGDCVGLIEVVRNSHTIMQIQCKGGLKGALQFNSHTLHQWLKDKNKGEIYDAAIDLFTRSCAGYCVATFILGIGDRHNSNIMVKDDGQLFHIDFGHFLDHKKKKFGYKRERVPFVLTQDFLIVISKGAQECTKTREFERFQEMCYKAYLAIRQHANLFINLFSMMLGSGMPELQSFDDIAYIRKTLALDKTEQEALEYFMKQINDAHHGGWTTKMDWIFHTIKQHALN
NEK11, sequence (Q8NG66 whole entry): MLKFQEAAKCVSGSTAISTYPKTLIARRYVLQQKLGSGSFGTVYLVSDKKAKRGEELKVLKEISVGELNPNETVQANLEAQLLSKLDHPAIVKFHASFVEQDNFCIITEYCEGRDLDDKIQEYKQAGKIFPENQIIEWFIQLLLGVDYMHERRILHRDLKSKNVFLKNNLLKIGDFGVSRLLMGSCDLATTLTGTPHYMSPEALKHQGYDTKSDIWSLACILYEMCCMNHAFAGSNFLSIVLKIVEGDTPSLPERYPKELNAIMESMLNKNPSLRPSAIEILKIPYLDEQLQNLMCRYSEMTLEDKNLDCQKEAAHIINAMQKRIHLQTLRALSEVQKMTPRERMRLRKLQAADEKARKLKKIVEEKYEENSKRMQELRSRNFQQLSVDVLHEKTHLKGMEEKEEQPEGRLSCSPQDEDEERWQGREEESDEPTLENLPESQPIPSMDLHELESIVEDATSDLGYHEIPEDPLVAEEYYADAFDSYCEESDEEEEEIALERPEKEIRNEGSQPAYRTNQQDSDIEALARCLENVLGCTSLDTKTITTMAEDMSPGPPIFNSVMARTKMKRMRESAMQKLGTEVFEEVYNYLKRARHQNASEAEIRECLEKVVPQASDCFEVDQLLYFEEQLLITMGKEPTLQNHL
KIT-autoinhibited, sequence (P10721 whole entry): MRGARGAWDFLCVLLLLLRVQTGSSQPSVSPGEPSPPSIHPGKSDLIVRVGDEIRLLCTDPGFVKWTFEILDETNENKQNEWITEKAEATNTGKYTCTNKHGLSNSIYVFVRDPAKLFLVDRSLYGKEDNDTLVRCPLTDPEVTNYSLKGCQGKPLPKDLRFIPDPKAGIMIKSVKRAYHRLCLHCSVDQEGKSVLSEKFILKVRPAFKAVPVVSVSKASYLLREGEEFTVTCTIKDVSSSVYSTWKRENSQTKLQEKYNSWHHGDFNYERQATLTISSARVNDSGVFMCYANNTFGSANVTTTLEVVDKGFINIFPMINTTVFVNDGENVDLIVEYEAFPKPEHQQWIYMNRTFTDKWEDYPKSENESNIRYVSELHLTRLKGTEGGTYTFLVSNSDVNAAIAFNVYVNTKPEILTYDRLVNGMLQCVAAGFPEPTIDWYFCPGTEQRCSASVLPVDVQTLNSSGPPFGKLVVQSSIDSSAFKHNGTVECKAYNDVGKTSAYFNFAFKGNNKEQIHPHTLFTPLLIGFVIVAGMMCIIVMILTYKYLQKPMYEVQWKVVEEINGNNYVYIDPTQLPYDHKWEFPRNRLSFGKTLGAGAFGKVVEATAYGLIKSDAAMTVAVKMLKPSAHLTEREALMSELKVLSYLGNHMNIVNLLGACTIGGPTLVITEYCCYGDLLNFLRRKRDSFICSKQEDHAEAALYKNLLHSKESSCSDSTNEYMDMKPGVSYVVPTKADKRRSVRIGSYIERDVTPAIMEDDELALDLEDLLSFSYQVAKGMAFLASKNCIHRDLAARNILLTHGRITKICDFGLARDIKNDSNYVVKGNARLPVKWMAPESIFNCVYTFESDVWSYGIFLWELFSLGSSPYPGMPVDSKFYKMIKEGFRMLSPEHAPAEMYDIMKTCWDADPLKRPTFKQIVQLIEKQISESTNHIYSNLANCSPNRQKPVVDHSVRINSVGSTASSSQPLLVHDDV
PIK3CA(C420R), sequence (P42336 whole entry C420R): as the sequence (P42336 whole entry M1043I) above, with C420R, I1043M counted along it

Q: With `Cc1cn(-c2cc(NC(=O)c3ccc4c(c3)CN(c3cncnc3)C[C@@H]4C)cc(C(F)(F)F)c2)cn1` [Compound 6j] as the molecule, how does the remaining activity at 1 µM (PIK3C2G) read?
A: 86%

Q: And the remaining activity at 1 µM (EPHA3)?
A: 55%

Q: What about the remaining activity at 1 µM (TBK1) of the same molecule?
A: 95%

Q: What about the remaining activity at 1 µM (PIK3CA(M1043I)) of the same molecule?
A: 93%

Q: What about the remaining activity at 1 µM (PIK4CB) of the same molecule?
A: 95%

Q: And the remaining activity at 1 µM [1]?
A: 100%

Q: What about the remaining activity at 1 µM (TNK1) of the same molecule?
A: 79%

Q: What about the remaining activity at 1 µM (AKT1) of the same molecule?
A: 96%

Q: And the remaining activity at 1 µM (FLT3(ITD))?
A: 71%

Q: What about the remaining activity at 1 µM (BLK) of the same molecule?
A: 68%

Q: What about the remaining activity at 1 µM (PIK3CA(C420R)) of the same molecule?
A: 97%

Q: What about the remaining activity at 1 µM (DAPK2) of the same molecule?
A: 94%

Q: And the remaining activity at 1 µM (BRSK1)?
A: 98%

Q: And the remaining activity at 1 µM (RIPK2)?
A: 80%

Q: What about the remaining activity at 1 µM (FLT3-autoinhibited) of the same molecule?
A: 100%

Q: And the remaining activity at 1 µM (BMPR1A)?
A: 93%

Q: What about the remaining activity at 1 µM (SBK1) of the same molecule?
A: 100%

Q: What about the remaining activity at 1 µM (MAST1) of the same molecule?
A: 100%

Q: What about the remaining activity at 1 µM (NEK11) of the same molecule?
A: 87%

Q: And the remaining activity at 1 µM (LIMK2)?
A: 100%

Q: And the remaining activity at 1 µM [2]?
A: 56%

Q: What about the remaining activity at 1 µM (ACVR2B) of the same molecule?
A: 93%

Q: And the remaining activity at 1 µM [3]?
A: 100%

Q: And the remaining activity at 1 µM (PIK3CG)?
A: 100%

Q: What about the remaining activity at 1 µM [4] of the same molecule?
A: 100%

Q: What about the remaining activity at 1 µM (ERBB3) of the same molecule?
A: 100%

Q: What about the remaining activity at 1 µM (TLK2) of the same molecule?
A: 98%

Q: And the remaining activity at 1 µM (PCTK2)?
A: 96%

Q: What about the remaining activity at 1 µM (AKT2) of the same molecule?
A: 100%

Q: And the remaining activity at 1 µM (PKAC-alpha)?
A: 87%

Q: What about the remaining activity at 1 µM (KIT-autoinhibited) of the same molecule?
A: 100%

Q: What about the remaining activity at 1 µM [5] of the same molecule?
A: 87%

Q: What about the remaining activity at 1 µM (PHKG1) of the same molecule?
A: 95%

Q: And the remaining activity at 1 µM (LYN)?
A: 100%

Q: And the remaining activity at 1 µM (ERN1)?
A: 100%
